Experimental findings from patent US20230312587A1, “PTERIDINONE COMPOUNDS AND USES THEREOF” (Vertex Pharmaceutical Incorporated, priority 2018, published 2023) are described below.

For test [1], the target named is Plk1 (Homo sapiens (Human), UniProt P53350). The experiment in a line: PLK1 inhibition assay (radioactive-phosphate incorporation). The note with it: Ki(app), read-out: PLK1 - 33P.ENZ - CB 10 Ki. The format is biochemical. On the procedure: Compounds were screened for their ability to inhibit Plk1 using a radioactive-phosphate incorporation assay. Assays were carried out in a mixture of 25 mM HEPES (pH 7.5), 10 mM MgCl2, 25 mM NaCl, and 2 mM DTT. Final substrate concentrations were 20 μM [γ-33P]ATP (35mCi 33P ATP/mmol ATP, Perkin Elmer/Sigma Chemicals) and 9 uM Sam68 protein. Assays were carried out at room temperature in the presence of 15 nM Plk1. An assay stock buffer solution was prepared containing all of the reagents listed above, with the exception of ATP and the test compound of interest. 0.75 μL of DMSO stock containing serial dilutions of the test compound (typically starting from a final concentration of 10 μM with 2-fold serial dilutions—final DMSO concentration 1.5%) was placed in a 384 well plate followed by addition of 25 μL [γ-33P]ATP (final concentration 20 μM). The reaction was initiated by addition of 25 μL of the assay stock buffer solution.
The reaction was stopped after 45 minutes by the addition of 25 μL 30% trichloroacetic acid (TCA) containing 10 mM cold ATP. The entire quenched reaction was transferred to a 384-well glass fiber filter plate (Millipore, Cat no. MZFBNOW50). The plate was washed with 3×5% TCA. After drying, 40 μL of Ultima Gold liquid scintillation cocktail (Perkin Elmer) was added to the well prior to scintillation counting in a PerkinElmer TopCount.
After removing mean background values for all of the data points, Ki(app) data were calculated from non-linear regression analysis of the initial rate data using the Prism software package (GraphPad Prism, GraphPad Software, San Diego California, USA).

Test [2] deals with β-catenin-TCF-mediated reporter transcription activity in Colo 205 cells. The experiment in a line: Colo 205 reporter assay (TCF/LEF luciferase). The format is cell-based. The note with it: Colo 205 TCF/LEF luciferase reporter, five hours after addition of compound, read-out: TCF reporter Colo205 IC50. The essentials:
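Luciferase signal from a TCF/LEF-driven reporter, stably integrated in Colo 205 colon cancer cells, was measured 5 h after compound addition.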

pIC50, pKi: −log10 of the molar value. Like-named read-outs stand apart in the source and are kept apart here.

Sequence of Plk1 (P53350 whole entry, species assumed): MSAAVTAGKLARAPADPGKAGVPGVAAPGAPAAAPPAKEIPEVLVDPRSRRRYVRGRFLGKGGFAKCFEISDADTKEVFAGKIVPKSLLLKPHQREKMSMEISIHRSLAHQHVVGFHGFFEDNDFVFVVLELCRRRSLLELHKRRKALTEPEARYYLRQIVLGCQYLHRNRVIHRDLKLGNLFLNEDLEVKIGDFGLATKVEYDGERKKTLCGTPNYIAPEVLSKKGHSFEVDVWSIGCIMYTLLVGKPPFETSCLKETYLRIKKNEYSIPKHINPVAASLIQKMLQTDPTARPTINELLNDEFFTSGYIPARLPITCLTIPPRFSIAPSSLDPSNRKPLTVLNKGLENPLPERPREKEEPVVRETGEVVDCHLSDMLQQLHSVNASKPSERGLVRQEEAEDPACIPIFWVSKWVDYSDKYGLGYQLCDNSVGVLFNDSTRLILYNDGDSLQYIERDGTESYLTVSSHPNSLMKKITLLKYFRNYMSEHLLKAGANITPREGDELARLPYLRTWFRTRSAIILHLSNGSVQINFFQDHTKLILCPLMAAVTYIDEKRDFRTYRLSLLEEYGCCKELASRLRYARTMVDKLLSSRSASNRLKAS

Take `CC[C@]1(C)C(=O)N(C)c2cnc(NCc3cnn(Cc4ccc(F)cc4)c3)nc2N1C` [Compound 3, (7R)-7-ethyl-2-(((1-(4-fluorobenzyl)-1H-pyrazol-4-yl)methyl)amino)-5,7,8-trimethyl-7,8-dihydropteridin-6(5H)-one]: the negative-log Ki (pKi) in test [1] is < 5.40. For the same molecule, the pIC50 in test [2] (Homo sapiens, COLO 205, 5 h) was > 6.52.
Turning to `Cc1nc(NCc2cnn(C3Cc4ccccc4C3)c2)nc2c1NC(=O)[C@H](C)N2C` [Compound 116, (7S)-2-(((1-(2,3-dihydro-1H-inden-2-yl)-1H-pyrazol-4-yl)methyl)amino)-4,7,8-trimethyl-7,8-dihydropteridin-6(5H)-one], the pKi in test [1] was < 5.40. For the same molecule, the pIC50 in test [2] (Homo sapiens, COLO 205, 5 h) is > 6.52.
Take `COc1c(F)cc(Cn2cc(CNc3ncc4c(n3)N(C)[C@@H](C)C(=O)N4)cn2)cc1F` [Compound 44, (7S)-2-(((1-(3,5-difluoro-4-methoxybenzyl)-1H-pyrazol-4-yl)methyl)amino)-7,8-dimethyl-7,8-dihydropteridin-6(5H)-one]: the pKi in test [1] is < 5.40. Further, the pIC50 in test [2] (Homo sapiens, COLO 205, 5 h) was > 6.52.
The matching figures for `CCN1C(=O)[C@H](C)N(C(C)C)c2nc(NCc3cnn(Cc4cc(F)c(F)c(F)c4)c3)ncc21` [Compound 51, (7S)-5-ethyl-8-isopropyl-7-methyl-2-(((1-(3,4,5-trifluorobenzyl)-1H-pyrazol-4-yl)methyl)amino)-7,8-dihydropteridin-6(5H)-one]: < 5.40 and > 6.52.
For `C[C@H]1C(=O)Nc2cnc(NCc3cnn(Cc4cc(F)c(O)c(F)c4)c3)nc2N1C` [Compound 50, (7S)-2-(((1-(3,5-difluoro-4-hydroxybenzyl)-1H-pyrazol-4-yl)methyl)amino)-7,8-dimethyl-7,8-dihydropteridin-6(5H)-one] the same measures were < 5.40 and ≤ 5.30.
`CCC[C@H]1C(=O)N(C)c2cnc(NCc3cnn(Cc4ccc(F)cc4)c3)nc2N1C` [Compound 24, (7S)-2-(((1-(4-fluorobenzyl)-1H-pyrazol-4-yl)methyl)amino)-5,8-dimethyl-7-propyl-7,8-dihydropteridin-6(5H)-one]: the pKi in test [1] was < 5.40. For the same molecule, the pIC50 in test [2] (Homo sapiens, COLO 205, 5 h) was 6.00 to 6.52.
Turning to `Cc1nc(NCc2cnn([C@H]3C[C@H](c4ccc(F)cc4)C3)c2)nc2c1NC(=O)[C@H](C)N2C` [Compound 112, (7S)-2-(((trans-1-(3-(4-fluorophenyl)cyclobutyl)-1H-pyrazol-4-yl)methyl)amino)-4,7,8-trimethyl-7,8-dihydropteridin-6(5H)-one], the pKi in test [1] was < 5.40. In addition, in test [2] (Homo sapiens, COLO 205, 5 h), the pIC50 was > 6.52.
The matching figures for `Cc1noc(C)c1Cn1cc(CNc2nc(C)c3c(n2)N(C)[C@@H](C)C(=O)N3)cn1` [Compound 138, (7S)-2-(((1-((3,5-dimethylisoxazol-4-yl)methyl)-1H-pyrazol-4-yl)methyl)amino)-4,7,8-trimethyl-7,8-dihydropteridin-6(5H)-one]: < 5.40 and > 6.52.
For `CCN1C(=O)[C@](C)(CC)N(CC)c2nc(NCc3cnn(Cc4ccc(F)cc4)c3)ncc21` [Compound 34, (7S)-5,7,8-triethyl-2-(((1-(4-fluorobenzyl)-1H-pyrazol-4-yl)methyl)amino)-7-methyl-7,8-dihydropteridin-6(5H)-one] the same measures were < 5.40 and 6.00 to 6.52.
For `CCN1C(=O)[C@H](CCO)N(CC)c2nc(NCc3cnn(Cc4cc(F)c(OC)c(F)c4)c3)ncc21` [Compound 48, (7S)-2-(((1-(3,5-difluoro-4-methoxybenzyl)-1H-pyrazol-4-yl)methyl)amino)-5,8-diethyl-7-(2-hydroxyethyl)-7,8-dihydropteridin-6(5H)-one] the same measures were < 5.40 and > 6.52.
For `CC[C@H]1C(=O)N(CC)c2cnc(NCc3cnn(Cc4ccc(F)cc4)c3)nc2N1C` [Compound 19, (7S)-5,7-Diethyl-2-(((1-(4-fluorobenzyl)-1H-pyrazol-4-yl)methyl)amino)-8-methyl-7,8-dihydropteridin-6(5H)-one], in test [1], the pKi was < 5.40. In addition, the pIC50 in test [2] (Homo sapiens, COLO 205, 5 h) is 6.00 to 6.52.
For `CCC[C@H]1C(=O)N(C)c2cnc(NCc3cnn(Cc4cc(F)c(F)c(F)c4)c3)nc2N1C` [Compound 23, (7S)-5,8-dimethyl-7-propyl-2-(((1-(3,4,5-trifluorobenzyl)-1H-pyrazol-4-yl)methyl)amino)-7,8-dihydropteridin-6(5H)-one], the pKi in test [1] was < 5.40. The pIC50 in test [2] (Homo sapiens, COLO 205, 5 h) is > 6.52.
The matching figures for `Cc1nc(NCc2cnn(CCC3CCCCC3)c2)nc2c1NC(=O)[C@H](C)N2C` [Compound 113, (7S)-2-(((1-(2-cyclohexylethyl)-1H-pyrazol-4-yl)methyl)amino)-4,7,8-trimethyl-7,8-dihydropteridin-6(5H)-one]: < 5.40 and > 6.52.
With `Cc1nc(N[C@H]2CC[C@H](Oc3cc(F)c(F)c(F)c3)C2)nc2c1NC(=O)[C@H](C)N2C` [Compound 268, (S)-4,7,8-trimethyl-2-(((1S,3S)-3-(3,4,5-trifluorophenoxy)cyclopentyl)amino)-7,8-dihydropteridin-6(5H)-one], the pKi in test [1] was < 5.40. Also, the pIC50 in test [2] is 6.00 to 6.52.
Consider `CCN1c2nc(NCc3cnn(Cc4ccc(F)cc4)c3)ncc2N(C)C(=O)[C@@H]1C` [Compound 22, (7S)-8-ethyl-2-(((1-(4-fluorobenzyl)-1H-pyrazol-4-yl)methyl)amino)-5,7-dimethyl-7,8-dihydropteridin-6(5H)-one], for which the pKi in test [1] was < 5.40. In test [2] (Homo sapiens, COLO 205, 5 h), the pIC50 is > 6.52.
The matching figures for `Cc1nc(NCc2cnn(Cc3cccc(C(F)(F)F)c3)c2)nc2c1NC(=O)[C@H](C)N2C` [Compound 47, (7S)-4,7,8-trimethyl-2-(((1-(3-(trifluoromethyl)benzyl)-1H-pyrazol-4-yl)methyl)amino)-7,8-dihydropteridin-6(5H)-one]: < 5.40 and > 6.52.
The matching figures for `CC[C@H]1C(=O)N(C)c2cnc(NCc3cnn(Cc4cc(F)c(F)c(F)c4)c3)nc2N1C` [Compound 15, (7S)-7-Ethyl-5,8-dimethyl-2-(((1-(3,4,5-trifluorobenzyl)-1H-pyrazol-4-yl)methyl)amino)-7,8-dihydropteridin-6(5H)-one]: < 5.40 and > 6.52.
For `Cc1nc(NCc2cnn(CC3CCC3)c2)nc2c1NC(=O)[C@H](C)N2C` [Compound 5, (7S)-2-(((1-(cyclobutylmethyl)-1H-pyrazol-4-yl)methyl)amino)-4,7,8-trimethyl-7,8-dihydropteridin-6(5H)-one] the same measures were < 5.40 and 6.00 to 6.52.
On to `Cc1nc(N[C@H]2C[C@@H](Cn3nccc3C(F)(F)F)C2)nc2c1NC(=O)[C@H](C)N2C` [Compound 275, (7S)-4,7,8-trimethyl-2-((cis-3-((5-(trifluoromethyl)-1H-pyrazol-1-yl)methyl)cyclobutyl)amino)-7,8-dihydropteridin-6(5H)-one], for which the pKi in test [1] is < 5.40. In addition, the pIC50 in test [2] (Homo sapiens, COLO 205, 5 h) is > 6.52.
For `Cc1nc(N[C@@H]2CC[C@@H](Oc3cc(F)c(F)c(F)c3)C2)nc2c1NC(=O)[C@H](C)N2C` [Compound 267, (S)-4,7,8-trimethyl-2-(((1R,3R)-3-(3,4,5-trifluorophenoxy)cyclopentyl)amino)-7,8-dihydropteridin-6(5H)-one], in test [1], the pKi is < 5.40. The pIC50 in test [2] (Homo sapiens, COLO 205, 5 h) was > 6.52.
